As for `*/C(C)=C(/*)SCC` (repeat unit), the glass transition temperature worked out at 160.00 °C.

With `*=Nc1ccc(Cc2ccc(NC(=*)CCCC)cc2)cc1` (repeat unit), the glass transition temperature is 106.00 °C. Regarding `*=Nc1ccc(Cc2ccc(NC(=*)c3ccccc3)cc2)cc1` (repeat unit), the glass transition temperature was determined as 158.00 °C.

In turn, `*=Nc1ccc(Oc2ccc(C(c3ccc(Oc4ccc(/N=C5/OC(=O)c6cc7c(cc65)C(=*)OC7=O)cc4)cc3)(C(F)(F)F)C(F)(F)F)cc2)cc1` (repeat unit) registered a glass transition temperature of 287.00 °C. The figure for `*CC(*)(C)C(=O)OCCCCn1c2ccccc2c2ccccc21` (repeat unit) is 59.20 °C; for `*CC(*)(C)C(=O)OCCCOc1ccc2cc(C(=O)Oc3ccccc3)ccc2c1` (repeat unit) it is 84.00 °C. In turn, `*CC(*)(C)C(=O)OCCC[Si](O[Si](C)(C)C)(O[Si](C)(C)C)O[Si](C)(C)C` (repeat unit) registered a glass transition temperature of 72.4 °C. Compound `*CC(*)(C)C(=O)OCCCn1c2ccccc2c2ccccc21` (repeat unit) gave a glass transition temperature of 113.00 °C.

Compound `*CC(*)(C)C(=O)OCCN(C)C` (repeat unit) had a glass transition temperature of 28.62 °C. Compound `*CC(*)(C)C(=O)OCCN(C)c1ccc(/N=N/c2ccc(/N=N/c3ccc(C#N)cc3)cc2C)cc1` (repeat unit) returned a glass transition temperature of 120.00 °C. For `*CC(*)(C)C(=O)OCCN(CC)c1ccc(/N=N/c2ccc(OC)cc2)c(C)c1` (repeat unit) the value was 95.00 °C; for `*CC(*)(C)C(=O)OCCN(CC)c1ccc(/N=N/c2nc3ccc([N+](=O)[O-])cc3s2)cc1` (repeat unit), 140.00 °C. Turning to `*CC(*)(C)C(=O)OCCN(CC)c1ccc([N+](=O)[O-])cc1` (repeat unit), the glass transition temperature was determined as 98.00 °C. The figure for `*CC(*)(C)C(=O)OCCN(CC)c1ccccc1` (repeat unit) is 37.50 °C; for `*CC(*)(C)C(=O)OCCN(CCCC)c1ccc(/N=N/c2ccc(S(=O)(=O)Nc3nccs3)cc2)cc1` (repeat unit) it is 53.00 °C; for `*CC(*)(C)C(=O)OCCOCCOCC1COCCOCCOCCO1` (repeat unit) it is 10.00 °C.

In the case of `*CC(*)(C)C(=O)OCCOCCOCCOc1ccc(/N=N/c2ccc(C#N)cc2)cc1` (repeat unit), the glass transition temperature is 37.00 °C. Compound `*CC(*)(C)C(=O)OCCO[N+](=O)[O-]` (repeat unit) registered a glass transition temperature of 55.00 °C.

As to `*CC(*)(C)C(=O)OCCOc1ccc(/N=N/c2ccc(OC)cc2)cc1` (repeat unit), the glass transition temperature was 109.00 °C. As to `*CC(*)(C)C(=O)OCCOc1ccc(C(=O)Oc2ccc(OCCCC)cc2)cc1` (repeat unit), the glass transition temperature is 137.00 °C. In the case of `*CC(*)(C)C(=O)OCCS(=O)CC` (repeat unit), the glass transition temperature stood at 25.00 °C. The figure for `*CC(*)(C)C(=O)OCCn1c2ccccc2c2cc(/N=N/c3ccc([N+](=O)[O-])cc3)ccc21` (repeat unit) is 164.00 °C; for `*CC(*)(C)C(=O)OCCn1c2ccccc2c2ccccc21` (repeat unit) it is 148.00 °C; for `*CC(*)(C)C(=O)OCSC` (repeat unit) it is 60.00 °C. As to `*CC(*)(C)C(=O)OCc1cc(Cl)ccc1Cl` (repeat unit), the glass transition temperature worked out at 27.80 °C. Turning to `*CC(*)(C)C(=O)OCc1ccc(/C=C/C(=O)Oc2ccc3oc(=O)ccc3c2)cc1` (repeat unit), the glass transition temperature came out at 140.00 °C. The figure for `*CC(*)(C)C(=O)OCc1ccc(Cl)cc1` (repeat unit) is 43.60 °C. The compound `*CC(*)(C)C(=O)OCc1ccc(Cl)cc1Cl` (repeat unit) came in with a glass transition temperature of 19.40 °C. On to `*CC(*)(C)C(=O)OCc1ccc(F)cc1F` (repeat unit), for which the glass transition temperature was determined as 46.00 °C. The figure for `*CC(*)(C)C(=O)OCc1ccc2c(c1)c1ccccc1n2CCCC` (repeat unit) is 87.00 °C; for `*CC(*)(C)C(=O)OCc1ccc2c(c1)c1ccccc1n2CCCCCC` (repeat unit) it is 73.00 °C; for `*CC(*)(C)C(=O)OCc1ccc2c(c1)c1ccccc1n2CCCCCCCCCCCCCC` (repeat unit) it is 26.00 °C. The figure for `*CC(*)(C)C(=O)OCc1ccc[se]1` (repeat unit) is 56.00 °C; for `*CC(*)(C)C(=O)OCc1cccc(Cl)c1` (repeat unit) it is 18.2 °C; for `*CC(*)(C)C(=O)OCc1ccco1` (repeat unit) it is 111.00 °C.

With `*CC(*)(C)C(=O)OCc1ccsc1` (repeat unit), the glass transition temperature is 83.50 °C. In turn, `*CC(*)(C)C(=O)Oc1c(Cl)c(Cl)c(Cl)c(Cl)c1Cl` (repeat unit) came in with a glass transition temperature of 110.00 °C. On to `*CC(*)(C)C(=O)Oc1c(OC)cc(/C=C/c2ccccc2)cc1OC` (repeat unit), for which the glass transition temperature was 140.00 °C.

Regarding `*CC(*)(C)C(=O)Oc1cc(C)cc(C)c1` (repeat unit), the glass transition temperature was 106.00 °C.

Turning to `*CC(*)(C)C(=O)Oc1ccc(/C=C/c2ccccc2)cc1` (repeat unit), the glass transition temperature came to 143.00 °C. In turn, `*CC(*)(C)C(=O)Oc1ccc(/N=N/c2ccc(C#N)cc2)cc1` (repeat unit) had a glass transition temperature of 185.00 °C. For `*CC(*)(C)C(=O)Oc1ccc(C#N)cc1` (repeat unit) the value was 155.00 °C. `*CC(*)(C)C(=O)Oc1ccc(C(=O)/C=C/c2ccc(OCc3ccccc3)cc2)cc1` (repeat unit) gave a glass transition temperature of 152.00 °C. Turning to `*CC(*)(C)C(=O)Oc1ccc(C(=O)O)cc1` (repeat unit), the glass transition temperature amounted to 110.00 °C. Consider `*CC(*)(C)C(=O)Oc1ccc(C(=O)OC)cc1` (repeat unit), for which the glass transition temperature stood at 109.00 °C. For `*CC(*)(C)C(=O)Oc1ccc(C(=O)Oc2ccc(-c3ccccc3)cc2)cc1` (repeat unit) the value was 100.00 °C; for `*CC(*)(C)C(=O)Oc1ccc(C(=O)Oc2ccc(Oc3ccccc3)cc2)cc1` (repeat unit), 74.00 °C; for `*CC(*)(C)OC` (repeat unit), 67.00 °C. The figure for `*CC(*)(C)c1ccc(C(C)C)cc1` (repeat unit) is 140.00 °C; for `*CC(*)(CC(=O)O)C(=O)O` (repeat unit) it is 141.00 °C; for `*CC(*)(CC(=O)OC(C)C)C(=O)OC12CC3CC(C)(CC(C)(C3)C1)C2` (repeat unit) it is 158.00 °C. The figure for `*CC(*)(CC(=O)OC(C)C)C(=O)OC12CC3CC(CC(C3)C1)C2` (repeat unit) is 180.00 °C; for `*CC(*)(CC(=O)OC)C(=O)OC12CC3CC(C)(CC(C)(C3)C1)C2` (repeat unit) it is 144.00 °C. Turning to `*CC(*)(CC(=O)OC1CCCCCCC1)C(=O)OC1CCCCCCC1` (repeat unit), the glass transition temperature came out at 124.00 °C.

`*CC(*)(CC(=O)OCC(C)C)C(=O)OCC(C)C` (repeat unit) showed a glass transition temperature of 125.00 °C. `*CC(*)(CC(=O)OCC)C(=O)O` (repeat unit): the glass transition temperature amounted to 135.00 °C. Take `*CC(*)(CC(=O)OCCC)C(=O)OCCC` (repeat unit): the glass transition temperature was 46.50 °C. Compound `*CC(*)(CC(=O)OCCCCCCC)C(=O)OCCCCCCC` (repeat unit) registered a glass transition temperature of -23.00 °C. For `*CC(*)(CC(=O)OCCCCCCCCC)C(=O)OCCCCCCCCC` (repeat unit) the value was -13.00 °C; for `*CC(*)(CC(=O)OCCOC)C(=O)OCCOC` (repeat unit), 34.00 °C; for `*CC(*)(CC(=O)OCCOCCOCCOC)C(=O)OCCOCCOCCOC` (repeat unit), -19.00 °C.

In the case of `*CC(*)(CC(=O)OCCc1ccccc1)C(=O)OCCc1ccccc1` (repeat unit), the glass transition temperature was determined as 45.00 °C. Consider `*CC(*)(CC(=O)Oc1ccc(OC)cc1)C(=O)Oc1ccc(OC)cc1` (repeat unit), for which the glass transition temperature was 119.50 °C. For `*CC(*)(CF)C(=O)OCC` (repeat unit), the glass transition temperature is 43.00 °C.

On to `*CC(*)(Cl)C(=O)OCCC` (repeat unit), for which the glass transition temperature came to 66.00 °C. The figure for `*CC(*)(Cl)C(=O)OCCCCCCOc1ccc(C(=O)Oc2ccc(OCCCC)cc2)cc1` (repeat unit) is 112.50 °C. For `*CC(*)(F)C(=O)OCC(F)(F)C(F)(F)C(F)(F)C(F)(F)F` (repeat unit), the glass transition temperature was found to be 63.00 °C. Take `*CC(*)(F)C(=O)OCC(F)(F)C(F)(F)F` (repeat unit): the glass transition temperature was 99.00 °C.

Consider `*CC(*)(F)C(=O)OCCC(F)(F)C(F)(F)C(F)(F)C(F)(F)F` (repeat unit), for which the glass transition temperature was 6.00 °C. `*CC(*)(F)C(F)(F)F` (repeat unit) displayed a glass transition temperature of 49.00 °C. Compound `*CC(*)C(=O)N1CC[NH+](CC)CC1` (repeat unit) came in with a glass transition temperature of 72.50 °C. `*CC(*)C(=O)NCCCCCC(=O)O` (repeat unit) came in with a glass transition temperature of 68.00 °C. Consider `*CC(*)C(=O)NCCC[N+](C)(C)C` (repeat unit), for which the glass transition temperature was 57.00 °C. Take `*Oc1ccc(/N=C(\C)c2ccc(Oc3ccc(C(C)(C)c4ccc(Oc5ccc(/C(C)=N/c6ccc(*)cc6)cc5)cc4)cc3)cc2)cc1` (repeat unit): the glass transition temperature is 141.00 °C. Compound `*Oc1ccc(/N=C(\c2ccccc2)c2ccc(Oc3ccc(-c4ccc(Oc5ccc(/C(=N/c6ccc(*)cc6)c6ccccc6)cc5)cc4)cc3)cc2)cc1` (repeat unit) had a glass transition temperature of 174.00 °C.

The compound `*Oc1ccc(Oc2ccc(/C(=N/c3ccc(/N=C(\c4ccccc4)c4ccc(*)cc4)cc3)c3ccccc3)cc2)cc1` (repeat unit) registered a glass transition temperature of 176.00 °C.

These data come from the PolyMetriX glass transition set.
